A short description of series [1]: Fluorescence quantum yield determination against sulforhodamine 101 reference. Type of series: physicochemical. The settings on record: excited at 560 nm, triplicate. As to the method: The fluorescence quantum yield of Compound 41 is determined using sulforhodamine 101 (in ethyl alcohol) as the reference standard (φF=0.90). The concentrations of sulforhodamine 101 (the reference) and Compound 41 are adjusted to obtain an absorbance of 0.25 (in 1 cm cell) at 560 nm. The sample and reference are each excited at 560 nm and their fluorescence spectra obtained. The fluorescence quantum yield of the sample (φF^X) in the indicated solvent was calculated from the following formula, considering that the peak area (AR) of the emission spectrum of the reference and that of the tested dye (AX) can be readily determined: φF^X=AxφF^RAR where φF^R and φF^X are the fluorescence quantum yields of the reference and the testing dye. The measurements are done in triplicate and the estimated errors are no more than 1%. The quantum yields of Compound 41 are determined to be 0.72 (in methyl alcohol) and 0.68 (in water) respectively.

Series [2] has as its system Mouse monocyte-macrophage, Abelson Leukemia Virus Transformed (RAW264.7) cells. As to the kind of experiment: Discrimination of live and dead cells by flow cytometry. As to conditions: heat-killed fraction (50° C., 20 minutes), 30 minutes on ice. Type of series: cell-based. As to the method: Selected dyes of the invention are highly polar, and therefore relatively impermeable to the membranes of live cells. These dyes can therefore be used to discriminate cells that have intact versus compromised cell membranes in a single-color assay as follows: Mouse monocyte-macrophage, Abelson Leukemia Virus Transformed (RAW264.7) cells are trypsinized and washed with phosphate buffered saline (PBS), pH 7.2. Approximately 8-10 million cells suspended in 180 μL of PBS, pH 7.2 are placed in a glass test tube and heated in a water bath at 50° C. for 20 minutes to kill a fraction of the cells. […] The mixture is incubated on ice for 30 minutes and washed twice with PBS, followed by addition of 200 μL of PBS, pH 7.2. An identical aliquot of cells is treated with 2 μL of a 150 μM solution of propidium iodide in water (as a control for dead cells).

The subject of series [3] is Neurons from zebrafish embryos. As to the kind of experiment: Neuronal tracing using a hydrazide-labeled fluorophore (microinjection). Type of series: cell-based. An excerpt: Neurons from zebrafish embryos are microinjected with Compound 44, using standard methods as described by Blankenfeld et al. (J. NEUROSCI. METH. 36, 309 (1991)). […] The staining is fixable in the cells using formaldehyde and standard fixing methods.

Series [4] is described as follows: Determination of the Ca2+ binding affinity (fluorescence titration, method of Tsien et al.). How it is done: The fluorescence response and dissociation constant of Compound 58 is determined using the method described by Tsien et al. METH. ENZYM. 172, 230 (1989). Compound 58 (1 mg) is dissolved in deionized water and 5 µL of this solution is diluted into 3 mL of each of two buffers, which are cross diluted to arrive at a series of Ca^2+ concentrations between zero and 35 µM. Emission spectra of the dye solutions are scanned between dilutions to generate a family of curves. Each of these curves has maximal fluorescence emission at approximately 640 nm with an increase in fluorescence emission intensity with increasing Ca^2+ concentration. This intensity change is plotted against the concentration of free Ca^2+ to give a value for the dissociation constant of the indicator. The calculated dissociation constant at 20° C. is 57.5 μM.

For series [5] the following is noted: in ethyl alcohol; cited from earlier work.
A short description of series [6]: Fluorescence of selected protein conjugates. Format: physicochemical. As to conditions: protein conjugates prepared with Compound 42 as in Example 47. How it is done:
A series of dye conjugates of goat anti-mouse IgG, streptavidin and other proteins, including R-phycoerythrin (R-PE) are prepared by standard means (Haugland et al., METH. MOL. BIOL. 45, 205 (1995); Haugland, METH. MOL. BIOL. 45, 223 (1995); Haugland, METH. MOL. BIOL. 45, 235 (1995)) using Compound 42 and a succinimidyl ester derivative of CY-5 dye.
A solution of the desired protein is prepared at 10 mg/mL in 0.1 M sodium bicarbonate. The labeling reagents are dissolved in DMF at 10 mg/mL. Predetermined amounts of the labeling reagents are added to the protein solutions with stirring. A molar ratio of 10 equivalents of dye to 1 equivalent of protein is typical, though the optimal amount varies with the particular labeling reagent, the protein being labeled and the protein's concentration, and is determined empirically. The reaction mixture is incubated at room temperature for one hour, or on ice for several hours. The dye-protein conjugate is typically separated from free unreacted reagent by size-exclusion chromatography on BIO-RAD P-30 resin equilibrated with PBS. The initial, protein-containing colored band is collected and the degree of substitution is determined from the absorbance at the absorbance maximum of each fluorophore, using the extinction coefficient of the free fluorophore.

Data on six compounds can be found in US7816519B2, “Derivatives of 1,2-dihydro-7-hydroxyquinolines containing fused rings” (Life Technologies Corporation, priority 2000, dated 2010).

Turning to `CN1c2cc3c(cc2-c2sc(S(=O)(=O)O)cc2C1(C)C)C(c1c(F)c(SCC(=O)O)cc(F)c1S(=O)(=O)[O-])=c1cc2c(cc1O3)=[N+](C)C(C)(C)c1cc(S(=O)(=O)O)sc1-2` [Compound 41], the fluorescence quantum yield in series [1] (in methyl alcohol) stood at 0.72; in series [1] (in water), 0.68. Regarding `CN1c2cc3c(cc2-c2sc(S(=O)(=O)O)cc2C1(C)C)C(c1c(F)c(SCC(=O)ON2C(=O)CCC2=O)cc(F)c1S(=O)(=O)[O-])=c1cc2c(cc1O3)=[N+](C)C(C)(C)c1cc(S(=O)(=O)O)sc1-2` [Compound 42], in series [2], the “dead cell populations stained, compared with propidium iodide” value is “very similar”. On to `CN1c2cc3c(cc2-c2sc(S(=O)(=O)O)cc2C1(C)C)C(c1c(F)c(SCC(=O)NN)cc(F)c1S(=O)(=O)[O-])=c1cc2c(cc1O3)=[N+](C)C(C)(C)c1cc(S(=O)(=O)O)sc1-2` [Compound 44], for which the “filling and fluorescence of microinjected neurons” value in series [3] was “neurons rapidly fill with the dye throughout their volume and their red fluorescence is readily observable”. Take `Cc1ccc(N(CC(=O)O)CC(=O)O)c(OCCOc2cc(C3=c4cc5c(cc4Oc4cc6c(cc43)-c3sc4ccccc4c3C(C)(C)N6C)=[N+](C)C(C)(C)c3c-5sc4ccccc34)ccc2N(CC(=O)[O-])CC(=O)O)c1` [Compound 58]: the maximal fluorescence emission entry in series [4] (Ca2+ buffer series, intensity increases with increasing Ca2+) was “approximately 640 nm”. Further, the Kd in series [4] (at 20° C., free Ca2+ between zero and 35 µM, read-out: dissociation constant (Ca2+)) worked out at 57.5 µM. In the case of `O=S(=O)([O-])c1cc(S(=O)(=O)O)ccc1C1=c2cc3c4c(c2Oc2c1cc1c5c2CCCN5CCC1)CCC[N+]=4CCC3` [sulforhodamine 101], the “fluorescence quantum yield of reference standard (φF)” value in series [5] is listed as 0.90. On to Wheat Germ Agglutinin, for which, in series [6], the “Quantum Yield” value was 0.56.
